The values that follow come from ChEMBL document CHEMBL1201862, “PubChem BioAssay data set” (2004).

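Grown in 96-well plates, cells were treated for 48 hours with each compound at five concentrations. Insufficient inhibition: endpoint recorded as highest concentration tested. GI50: concentration for 50% inhibition of growth.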 Activity calls are given as the source filed them. No stated cut-off is given here; in the data, active = GI50 up to about 1.1 µM and inactive = higher.

Holding throughout (test): NCI tumour cell line growth inhibition, 48 h
Experiment [1] relates to SR.
The subject of experiment [2] is IGROV-1.
For experiment [3], the system named is RPMI-8226.
The subject of experiment [4] is MDA-MB-231.
The subject of experiment [5] is CAKI-1.
Experiment [6] has as its system NCI-H522.
The test system of experiment [7] is 786-0.
Experiment [8] deals with HOP-62.
Experiment [9] deals with SK-MEL-5.
In experiment [10] the test system is A549.
Experiment [11] deals with KM12.
Experiment [12] has as its system T47D.
Experiment [13] has as its system LOX IMVI.
The test system of experiment [14] is UACC-62.
Experiment [15] relates to OVCAR-4.
Experiment [16] concerns UACC-257.
Experiment [17] deals with SF-295.
Experiment [18] deals with PC-3.
Experiment [19] deals with Malme-3M.
The test system of experiment [20] is HOP-92.

For the compound `CC1CC(=O)N2CCCNC2=C1C#N` (stereo not given), the GI50 in experiment [1], in experiment [2], in experiment [3], in experiment [4], in [5] and in experiment [6] was > 100 µM (inactive) in each case. The GI50 in [7], in experiment [8], in experiment [9], in [10], in experiment [11] and in [12] was > 100 µM (inactive) throughout. In addition, the GI50 in experiment [13], in experiment [14], in [15], in [16], in experiment [17] and in experiment [18] was > 100 µM (inactive) each time. In addition, the GI50 in experiment [19] was > 100 µM (inactive).

For `O=C(CNC(=O)OCc1ccccc1)NCCCCC(NC(=O)OCc1ccccc1)C(=O)NC(CCCCNC(=O)CNC(=O)OCc1ccccc1)C(=O)OCc1ccccc1` (stereo not given), the GI50 was > 62.5 µM (inactive) in experiment [1]; > 62.5 µM (inactive) in experiment [2]; > 62.5 µM (inactive) in experiment [3]; > 62.5 µM (inactive) in [4]; > 62.5 µM (inactive) in experiment [5]; 26.9 µM (inactive) in experiment [6]. In addition, the GI50 in [7], in experiment [8], in experiment [9], in [10], in [12] and in experiment [13] was > 62.5 µM (inactive) each time. For the same compound, the GI50 in experiment [14], in [15], in experiment [16], in experiment [18] and in experiment [19] was > 62.5 µM (inactive) in each case.

As for `COC1C(=O)CCC2(CO2)C1(O)C1(C)OC1CC=C(C)C` (stereo not given), the GI50 in [1] is 13.9 µM (inactive); in [2], 16.9 µM (inactive); in [4], > 100 µM (inactive); in [5], 38.1 µM (inactive); in experiment [7], 32.4 µM (inactive); in experiment [8], 14.7 µM (inactive). Moreover, the GI50 is 14.7 µM (inactive) in experiment [9]; 10.6 µM (inactive) in experiment [10]; 16.2 µM (inactive) in [11]; 25.8 µM (inactive) in experiment [20]; > 100 µM (inactive) in [12]; 5.21 µM (inactive) in experiment [13]. Also, the GI50 in experiment [14] is 13.7 µM (inactive); in experiment [15] it was > 100 µM (inactive); in experiment [16], 23.2 µM (inactive); in [17] it was 29.8 µM (inactive); in [18] it was 28.3 µM (inactive).

Take `COC(=O)c1cc(/C=C/C(=O)Cc2ccccc2)cn1S(=O)(=O)c1ccccc1`: the GI50 in experiment [1], in experiment [2], in experiment [4], in experiment [5], in experiment [6] and in experiment [7] was > 100 µM (inactive) throughout. The GI50 in [8], in experiment [9], in experiment [10], in experiment [11], in experiment [12] and in experiment [13] was > 100 µM (inactive) throughout. The GI50 in experiment [14], in [15], in experiment [16], in [17], in [18] and in experiment [19] was > 100 µM (inactive) each time.

For the compound `NC1=NCC(CN2CCCCC2)O1` (stereo not given), the GI50 in [1], in experiment [2], in experiment [3], in experiment [4], in experiment [5] and in experiment [6] was > 100 µM (inactive) each time. Besides, the GI50 in experiment [7], in [8], in experiment [9], in [10], in experiment [11] and in experiment [12] was > 100 µM (inactive) in each case. The GI50 in experiment [13], in [14], in experiment [16], in experiment [17], in experiment [18] and in [19] was > 100 µM (inactive) each time.

For the compound `C/C(=N\Nc1nc2ccccc2[nH]1)c1ccc2ccccc2n1`, the GI50 is 0.08 µM (active) in experiment [1]; 0.129 µM (active) in experiment [2]; 0.897 µM (active) in experiment [3]; 1.87 µM (inactive) in experiment [4]; 0.339 µM (active) in experiment [5]; 2.33 µM (inactive) in experiment [6]. Moreover, the GI50 is 1.9 µM (inactive) in experiment [7]; 2.78 µM (inactive) in experiment [8]; 1.46 µM (inactive) in experiment [9]; 2.52 µM (inactive) in [10]; 2.08 µM (inactive) in experiment [11]; 0.343 µM (active) in experiment [12]. Moreover, the GI50 in [13] was 2.11 µM (inactive); in experiment [14] it was 2.6 µM (inactive); in experiment [15] it was 1.85 µM (inactive); in experiment [16], 3.55 µM (inactive); in experiment [17], 2.49 µM (inactive); in experiment [18], 1.44 µM (inactive). Besides, the GI50 in experiment [19] was 2.4 µM (inactive).

Regarding `N=c1oc2ccc(Cl)cc2cc1C(=O)NC1CCCCC1`, the GI50 in experiment [1] is 51.5 µM (inactive); in experiment [2] it was 41 µM (inactive); in experiment [3], 59.3 µM (inactive); in experiment [4], > 100 µM (inactive); in [5], > 100 µM (inactive); in [7], 87.9 µM (inactive). For the same compound, the GI50 in experiment [8] is > 100 µM (inactive); in experiment [9] it was 84.3 µM (inactive); in experiment [10], 71.3 µM (inactive); in experiment [11] it was 47.6 µM (inactive); in experiment [20], > 100 µM (inactive); in experiment [12], 66.2 µM (inactive). Moreover, the GI50 was 53 µM (inactive) in [13]; 59.2 µM (inactive) in [14]; > 100 µM (inactive) in experiment [15]; > 100 µM (inactive) in [16]; 68.5 µM (inactive) in [18].

Take `CCCSc1cc(Cl)c(C)cc1S(=O)(=O)n1ccnc1OCCCN(C)C`: the GI50 in [1], in [2], in experiment [4], in experiment [5], in [6] and in experiment [7] was > 100 µM (inactive) in each case. In addition, the GI50 in experiment [8], in experiment [9], in experiment [10], in experiment [11], in [12] and in experiment [13] was > 100 µM (inactive) each time. Also, the GI50 in [14], in experiment [15], in [16], in experiment [17], in experiment [18] and in experiment [19] was > 100 µM (inactive) throughout.

Consider `Cc1ccc([S+]([O-])c2sccc2C=O)cc1` (stereo not given), for which the GI50 in experiment [1] is 31.8 µM (inactive); in [2] it was 22.6 µM (inactive); in experiment [3], 31 µM (inactive); in experiment [4], 26.4 µM (inactive); in experiment [5], > 100 µM (inactive); in experiment [6], 41.1 µM (inactive). The GI50 is 32.1 µM (inactive) in experiment [7]; 31.3 µM (inactive) in experiment [8]; 29.1 µM (inactive) in experiment [9]; > 100 µM (inactive) in experiment [10]; 27.7 µM (inactive) in experiment [11]; 43.7 µM (inactive) in [12]. Besides, the GI50 in [13] was 14.4 µM (inactive); in experiment [14], 19.3 µM (inactive); in experiment [15], 29 µM (inactive); in experiment [16], 53.5 µM (inactive); in [17], 23.7 µM (inactive); in experiment [18], 34 µM (inactive). Further, the GI50 in [19] is 23.4 µM (inactive).

Consider `CSc1nc(=O)n(CCC#N)nc1SC`, for which the GI50 is 32.8 µM (inactive) in experiment [1]; > 100 µM (inactive) in experiment [2]; 22.8 µM (inactive) in experiment [3]; 19.2 µM (inactive) in experiment [4]; > 100 µM (inactive) in experiment [5]; 25.6 µM (inactive) in experiment [6]. The GI50 in [7] was 25.3 µM (inactive); in [8], > 100 µM (inactive); in experiment [9], 19.1 µM (inactive); in experiment [10], > 100 µM (inactive); in experiment [11], > 100 µM (inactive); in experiment [12], 24.3 µM (inactive). The GI50 in [13] is 19.5 µM (inactive); in [14] it was 32.3 µM (inactive); in [16], > 10 µM (inactive); in [17], > 100 µM (inactive); in [18], 66.5 µM (inactive); in experiment [19], 15.2 µM (inactive).

As to `CCOC(=O)CCC(NC(=O)C(N)c1ccc([N+](=O)[O-])cc1)C(=O)NC(CCC(=O)OCC)C(=O)OCC` (stereo not given), the GI50 in experiment [1], in [2], in experiment [3], in experiment [4], in experiment [7] and in [8] was > 100 µM (inactive) each time. Further, the GI50 in [9] was > 100 µM (inactive); in experiment [10], > 100 µM (inactive); in experiment [11], > 100 µM (inactive); in experiment [20] it was > 100 µM (inactive); in experiment [12], 35.6 µM (inactive); in experiment [14], > 100 µM (inactive). Moreover, the GI50 in experiment [16], in [18] and in experiment [19] was > 100 µM (inactive) in each case.
